The test system of assay [1] is HeLa (cervical adenocarcinoma). Kind of assay: MTS cell viability assay, HeLa. The format is cell-based. The note with it: Homo sapiens, HeLa, MTS assay; read-out: HeLa IC50. In general terms: Formazan colour is commonly taken as a measure of viable cells.
The test system of assay [2] is Colon Cancer cell lines. Kind of assay: NCI DTP human tumor cell line screen, colon cancer panel. The settings on record: Colon Cancer (7 cell lines). The format is cell-based. The source says: (§1) The United States National Cancer Institute (NCI) provides a developmental therapeutics program (DTP) (http://dtp.nci.nih.gov/branches/btb/ivelsp.html) to screen submitted substances in support of cancer drug discovery. The In Vitro Cell Line Screening Project (IVCLSP) is a dedicated service providing direct support to the DTP anticancer drug discovery program and is designed to screen up to 3,000 compounds per year for potential anticancer activity. The operation of this screen utilizes 60 different human tumor cell lines, representing leukemia, melanoma and cancers of the lung, colon, brain, ovary, breast, prostate, and kidney. The aim is to prioritize for farther evaluation, synthetic compounds or natural product samples showing selective growth inhibition or cell killing of particular tumor cell lines. This screen is unique in that the complexity of a 60 cell line dose response produced by a given compound results in a biological response pattern which can be utilized in pattern recognition algorithms (COMPARE program. See: http://dtp.nci.nih.gov/docs/compare/compare.html). Using these algorithms, it is possible to assign a putative mechanism of action to a test compound, or to determine that the response pattern is unique and not similar to that of any of the standard prototype compounds included in the NCI database. […]

Assay [3] concerns A549 (lung carcinoma). Kind of assay: MTS cell viability assay, A549. The format is cell-based. The settings on record: Homo sapiens, A549; MTS assay; read-out: A549 IC50.
For assay [4], the system named is Leukemia cell lines. Kind of assay: NCI DTP human tumor cell line screen, leukemia panel. Format: cell-based. The settings on record: Leukemia (6 cell lines).
Text: as §1

Assay [5] has as its system COS-7 cells. Kind of assay: MTT cytotoxicity assay in COS-7 cells (run with SEAP). Format: cell-based, green monkey. The settings on record: Chlorocebus sabaeus, COS-7 test cells of the SEAP assay.
Method: The MTT assay is a colorimetric method for determining the number of viable cells. Metabolically active cells turn the MIT reagent, (3-(4,5-dimethylthiazol-2-yl)-2,5-diphenyltetrazolium bromide, into purple-colored formazan crystals that are solubilized in dimethyl sulfoxide (DMSO). The MTT reagent is added to MTT (colorless) media. The media is added to the cells and they are incubated for 4 hours. DMSO is added to the cells and mixed. The colored solutions are then read at 540 nm and corrected at 630 nm. The IC50 is estimated by graphing the gathered data.
The cells are analyzed by the MTT assay to compare cytotoxicity to SEAP inhibition. The goal is for the drug to inhibit SEAP without being too toxic.
The MTT assay measures cellular-proliferation and is used to verify that the levels of SEAP activity are not solely due to cytotoxicity. These assays was used in screening for potential drug compound leads as antiviral agents, and particularly, anti-HIV candidates.
For assay [6], the system named is Prostate cell lines. Kind of assay: NCI DTP human tumor cell line screen, prostate panel. The format is cell-based. The settings on record: Prostate (2 cell lines).
Text: as §1

Usually IC50 stands for the concentration needed to halve the response being measured. As to `C[C@H](Cc1ccc(OCCCN2CCCCC2)c(OCCCN2CCCCC2)c1)[C@@H](C)Cc1ccc(OCCCN2CCCCC2)c(OCCCN2CCCCC2)c1` [Compound A, 1,4-bis{3,4-bis[3-(piperidin-1-yl)propoxy]phenyl}-2,3-dimethyl-(2R,3S)-butane], the half-maximal inhibitory concentration (IC50) in assay [1] fell in the range of 2 to 3 µM; in assay [3], 0.8 to 0.9 µM; in assay [5], 0.7 to 0.9 µM. For the same compound, the “Mean Growth Percent at 10 μM” value in assay [2] was −94.08%; in assay [4] it was −81.93%; in assay [6] it was −95.47%.
